In US9597292B2, “Oral dosage forms of methyl hydrogen fumarate and prodrugs thereof” (XenoPort, Inc., priority 2012, dated 2017):

Columns and labels:
Assay type in all cases: in vivo, human
[1] = Safety and tolerability, adverse events in single-dose food effect study (Example 8); conditions: for Feeling Hot (subjects reporting) / Flushing (subjects reporting): 12 subjects
Text: (§1) Twenty-four healthy adult volunteers (males and females) participated in the study. Twelve of the subjects received a dosage form of Example 1, once in a fed condition and once in a fasted condition, with a two-week washout between treatments. Twelve other subjects received a dosage form of Example 2, once in a fed condition and once in a fasted condition, with a two-week washout between treatments. The fasted dosing was achieved by dosing the subject following an overnight fast while the fed dosing was achieved by dosing the subject after consuming a high fat-content breakfast.

[2] = Safety and tolerability, adverse events in single-dose food effect study (Example 15); conditions: for Feeling Hot (subjects reporting) / Flushing (subjects reporting): 12 subjects
Text: (§2) Twelve healthy adult volunteers (males and females) participated in the study. All twelve subjects received a dosage form of Example 9, once in a fed condition and once in a fasted condition, with a two-week washout between treatments. The fasted dosing was achieved by dosing the subject following an overnight fast while the fed dosing was achieved by dosing the subject after consuming a high fat-content breakfast.

[3] = Single-dose food effect pharmacokinetic study in healthy adult subjects (Example 8); conditions: promoiety after oral dosing of Example 2 formulation
Text: as §1
(§3) Urine samples were collected from all subjects prior to dosing, and complete urine output was obtained at the 0-4, 4-8, 8-12, 12-24, 24-36, 36-48, 48-72, 72-96 and 96-120 hour intervals after dosing. Blood samples were quenched immediately with acetonitrile and frozen.

[4] = Single-dose food effect pharmacokinetic study of sustained release dosage form in healthy adult subjects (Example 15); conditions: promoiety after oral dosing of the formulation
Text: as §2, §3

[5] = single 200 mg oral dose, fed and fasted

CCN(CC)C(=O)COC(=O)/C=C/C(=O)OC [(N,N-Diethylcarbamoyl)methyl methyl (2E)but-2-ene-1,4-dioate]
Feeling Hot (subjects reporting) ([1]; Fasted): no subjects | Flushing (subjects reporting) ([1]; Fasted): No subjects | Feeling Hot (subjects reporting) ([1]; Fed): no subjects | Flushing (subjects reporting) ([1]; Fed): One | tolerability during the trial [1, 5]: well tolerated | Feeling Hot (subjects reporting) ([2]; Fasted): no subjects | Flushing (subjects reporting) ([2]; Fasted): No subjects | Feeling Hot (subjects reporting) ([2]; Fed): no subjects | Flushing (subjects reporting) ([2]; Fed): Two | tolerability during the trial [2, 5]: well tolerated

CCN(CC)C(=O)CO [Promoiety]
half life of clearance from blood [3]: around 3 hours | half life of clearance from blood [4]: around 3 hours
